This assay concerns the target T1, human CCR10 (Homo sapiens, UniProt P46092).
T1 construct: expressed in transfected cells; host or cells: KJMGER8 cell (cell line derived from Namalwa cell); expression induced with 10 nmol/L β-estradiol
T1 sequence (P46092 1-362): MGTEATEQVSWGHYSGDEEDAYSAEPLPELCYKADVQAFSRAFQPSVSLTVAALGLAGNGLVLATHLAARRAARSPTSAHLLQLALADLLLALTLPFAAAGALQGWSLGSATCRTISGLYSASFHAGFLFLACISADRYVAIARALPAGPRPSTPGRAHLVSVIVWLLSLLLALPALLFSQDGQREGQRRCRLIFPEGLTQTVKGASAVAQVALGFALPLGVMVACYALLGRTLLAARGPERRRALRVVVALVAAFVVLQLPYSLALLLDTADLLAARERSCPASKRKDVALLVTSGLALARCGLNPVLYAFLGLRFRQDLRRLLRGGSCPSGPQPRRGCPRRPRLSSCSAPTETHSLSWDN
In words: Calcium assay of human CCR10 (inhibition of CTACK-induced increase in intracellular calcium ion concentration in hCCR10G16 cells). It counts as cell-based. The conditions noted are these: test compound 100 nmol/L; human recombinant CTACK; hCCR10G16 cells (KJMGER8/Namalwa-derived, Gα16 co-expressed); FLIPR or FDSS; read-out: Inhibitory rate (%) for an increase in calcium ion concentration. The method, then: A CCR10-inducible expression plasmid was produced according to a known method (“Analytical Biochemistry”, 2006, vol. 400, page 163). A DNA encoding human CCR10 was obtained by PCR. Using human chromosomal DNA (100 ng; manufactured by Clontech Laboratories, Inc.) as a template, a synthetic DNA having the sequences shown by SEQ ID NOs: 1 and 2 as a human CCR10 cDNA specific primer, and Pyrobest DNA Polymerase (manufactured by TAKARA SHUZO CO. LTD.) as an enzyme, a DNA encoding human CCR10 was obtained by PCR. As a buffer solution for PCR, the buffer solution attached to the enzyme was diluted 10-fold with deionized water and used. Using Thermal Cycler DNA Engine (manufactured by MJ Research), PCR was performed by 35 cycles of reactions composed of an incubation at 90° C. for 2 min, at 94° C. for 30 seconds, at an anneal temperature of 58° C. for 30 seconds, and at 72° C. for 1 min.
The amplified PCR fragment was cleaved with HindIII and NotI, then a human CCR10 DNA fragment was recovered by an agarose gel electrophoresis method. The fragment was incorporated in between the corresponding restriction enzyme sites (HindIII-NotI) of an inducible expression vector, whereby a human CCR10-inducible expression plasmid were prepared.
Using a primer specific to the sequence of the plasmid (synthetic DNA having the sequences shown by SEQ ID NOs: 3 and 4), the sequence of human CCR10 DNA region was determined. For the determination of the base sequence, DNA sequencer 377 (manufactured by PerkinElmer) and a reaction kit (ABI Prism (registered trade mark) BigDye (registered trade mark) Terminator Cycle Sequencing Ready Reaction kit: manufactured by Applied Biosystems) were used. The sequence of human CCR10 DNA matched with the sequence (NM_016602) registered in GenBank.
Cells for the detection of the signal from human CCR10 by a calcium assay were prepared. Human CCR10-inducible expressing cells whose host cell is KJMGER8 cell (cell line derived from Namalwa cell) were prepared according to a known method (“Analy Biochem”, 2006, vol. 400, page 163). Human CCR10-inducible expression plasmid produced above and Gα16 expression plasmid were co-transfected into KJMGER8 cell by an electroporation method (“Cytotechnology”, 1990, vol. 3, page 133), whereby a signal from human CCR10 could be detected by a calcium assay (hereinafter to be referred to as hCCR10G16 cell). Gα16 expression plasmid was produced by incorporating human Gα16 DNA into expression vector pAMoh (WO03/087366). Induced expression of human CCR10 was performed by cultivating hCCR10G16 cells in the presence of 10 nmol/L β-estradiol (manufactured by Sigma Ltd.) for 24 hr.
Cells expressing human CCR10 induced by the above-mentioned method were suspended in RPMI1640 medium and adjusted to cell density of 1.25×10^6 cells/mL. This mixture was dispensed to a 384 well clear bottom plate (manufactured by Corning Incorporated) at 20 μL/well, and these were incubated at 37° C. for several dozen minutes. A loading buffer prepared according to the protocol attached to FLIPR Calcium 3 assay kit (manufactured by Molecular Device) was dispensed to this plate at 20 μL/well, and the plate was incubated at 37° C. for 60 min. A 33 μmol/L DMSO solution of the test compound was diluted 37-fold with RPMI1640 medium and the resulting solution was added at 5 μL/well, and the mixture was incubated at 37° C. for 30 min. 300 nmol/L human recombinant CTACK (manufactured by R and D Systems) diluted with RPMI1640 medium containing 1 w/v % bovine serum albumin was added at 5 μL/well. Change of the intracellular calcium ion concentration for about 5 min after the addition was measured by FLIPR (manufactured by Molecular Device) or FDSS (manufactured by Hamamatsu Photonics K.K.). The difference between the maximum fluorescence intensity and the minimum fluorescence intensity for 5 min was calculated, and taken as the measurement value (maximum fluorescence intensity−minimum fluorescence intensity). […]

Where only a bound is given, the exact number is not on record here.

For `O=C(NS(=O)(=O)c1cnn2c(Nc3ccccc3Cl)c(C(=O)N3CCC(c4ccc(F)cc4)CC3)cnc12)C1CC1` [a-9, N-{7-(2-Chlorophenylamino)-6-[4-(4-fluorophenyl)piperidine-1-carbonyl]pyrazolo[1,5-a]pyrimidin-3-ylsulfonyl}cyclopropanecarboxamide], the inhibition at 0.1 µM turned out to be 80.6%.
For the compound `Cc1cc(F)ccc1Nc1c(C(=O)N2CCC(c3ccccc3)CC2)cnc2c(S(=O)(=O)NC(=O)N3CCOCC3)cnn12` [a-68, N-[7-(4-Fluoro-2-methylphenylamino)-6-(4-phenylpiperidine-1-carbonyl)pyrazolo[1,5-a]pyrimidin-3-ylsulfonyl]morpholine-4-carboxamide], the inhibition at 0.1 µM was 85.9%.
With `O=C(c1cnc2c(S(=O)(=O)Nc3ncccn3)cnn2c1Nc1cc(Cl)ccc1Cl)N1CCC(c2ccc(F)cc2)CC1` [a-80, 7-(2,5-Dichlorophenylamino)-6-[4-(4-fluorophenyl)piperidine-1-carbonyl]-N-(pyrimidin-2-yl)pyrazolo[1,5-a]pyrimidine-3-sulfonamide] the figure was > 100%; with `CCNC(=O)NS(=O)(=O)c1cnn2c(Nc3cc(C)ccc3Cl)c(C(=O)N3CC4(C3)CN(c3ccc(F)cc3)C4)cnc12` [a-61, 7-(2-Chloro-5-methylphenylamino)-N-(ethylcarbamoyl)-6-[6-(4-fluorophenyl)-2,6-diazaspiro[3,3]heptane-2-carbonyl]pyrazolo[1,5-a]pyrimidine-3-sulfonamide], 24.3%.
With `Cc1cc(F)ccc1Nc1c(C(=O)N2CCC(c3ccccc3)CC2)cnc2c(S(=O)(=O)NC(=O)C(F)(F)F)cnn12` [a-70, 2,2,2-Trifluoro-N-[7-(4-fluoro-2-methylphenylamino)-6-(4-phenylpiperidine-1-carbonyl)pyrazolo[1,5-a]pyrimidin-3-ylsulfonyl]acetamide] the figure was > 100%; with `Cc1cc(F)ccc1Nc1c(C(=O)N2CCC(c3ccccc3)CC2)cnc2c(S(=O)(=O)NC(=O)CO)cnn12` [a-65, N-[7-(4-Fluoro-2-methylphenylamino)-6-(4-phenylpiperidine-1-carbonyl)pyrazolo[1,5-a]pyrimidin-3-ylsulfonyl]-2-hydroxyacetamide], > 100%; with `CCONS(=O)(=O)c1cnn2c(Nc3cc(Cl)ccc3Cl)c(C(=O)N3CCC(c4ccc(F)cc4)CC3)cnc12` [a-28, 7-(2,5-Dichlorophenylamino)-N-ethoxy-6-[4-(4-fluorophenyl)piperidine-1-carbonyl]-pyrazolo[1,5-a]pyrimidine-3-sulfonamide], > 100%.
Then `CCC(=O)NS(=O)(=O)c1cnn2c(Nc3cc(C)ccc3F)c(C(=O)N3CCC(c4ccc(F)cc4)CC3)cnc12` [a-31, N-{7-(2-Fluoro-5-methylphenylamino)-6-[4-(4-fluorophenyl)piperidine-1-carbonyl]pyrazolo[1,5-a]pyrimidin-3-ylsulfonyl}propionamide], with > 100%.
Consider `CCNC(=O)NS(=O)(=O)c1cnn2c(Nc3ccc(F)cc3C)c(C(=O)N3CCC4(CC3)OCc3ccccc34)cnc12` [a-43, 7-(4-Fluoro-2-methylphenylamino)-N-(ethylcarbamoyl)-6-[3H-spiro(isobenzofuran-1,4′-piperidine)-1′-carbonyl]pyrazolo[1,5-a]pyrimidine-3-sulfonamide], for which the inhibition at 0.1 µM came out at 92%.
With `CC1(C(=O)NS(=O)(=O)c2cnn3c(Nc4cc(Cl)ccc4Cl)c(C(=O)N4CCC(c5ccc(F)cc5)CC4)cnc23)COC1` [a-25, N-{7-(2,5-Dichlorophenylamino)-6-[4-(4-fluorophenyl)piperidine-1-carbonyl]pyrazolo[1,5-a]pyrimidin-3-ylsulfonyl}-3-methyloxetane-3-carboxamide] the figure was > 100%; with `CCC(=O)NS(=O)(=O)c1cnn2c(Nc3cc(F)ccc3F)c(C(=O)N3CCC(c4ccc(F)cc4)CC3)cnc12` [a-36, N-{7-(2,5-Difluorophenylamino)-6-[4-(4-fluorophenyl)piperidine-1-carbonyl]pyrazolo[1,5-a]pyrimidin-3-ylsulfonyl}propionamide], > 100%.
Then `COC(=O)NS(=O)(=O)c1cnn2c(Nc3cc(C)ccc3C)c(C(=O)N3CCC(c4ccccc4)CC3)cnc12` [a-74, Methyl 7-(2,5-dimethylphenylamino)-6-(4-phenylpiperidine-1-carbonyl)pyrazolo[1,5-a]pyrimidin-3-ylsulfonylcarbamate], with > 100%; and `O=C(c1cnc2c(S(=O)(=O)Nc3cccnn3)cnn2c1Nc1cc(Cl)ccc1Cl)N1CCC(c2ccc(F)cc2)CC1` [a-79, 7-(2,5-Dichlorophenylamino)-6-[4-(4-fluorophenyl)piperidine-1-carbonyl]-N-(pyridazin-3-yl)pyrazolo[1,5-a]pyrimidine-3-sulfonamide], with > 100%; and `CCNS(=O)(=O)c1cnn2c(Nc3ccc(F)cc3C)c(C(=O)N3CCC(c4ccc(F)cc4)CC3)cnc12` [a-3, N-Ethyl-7-(4-fluoro-2-methylphenylamino)-6-[4-(4-fluorophenyl)piperidine-1-carbonyl]pyrazolo[1,5-a]pyrimidine-3-sulfonamide], with > 100%.
As to `CCNC(=O)NS(=O)(=O)c1cnn2c(Nc3ccccc3Cl)c(C(=O)N3CCC(c4ccccc4)CC3)cnc12` [a-7, 7-(2-Chlorophenylamino)-N-(ethylcarbamoyl)-6-(4-phenylpiperidine-1-carbonyl)pyrazolo[1,5-a]pyrimidine-3-sulfonamide], the inhibition at 0.1 µM was 92.4%.
Then `CCNC(=O)NS(=O)(=O)c1cnn2c(Nc3ccc(C)cc3F)c(C(=O)N3CCC4(CC3)OCc3ccccc34)cnc12` [a-49, 7-(2-Fluoro-4-methylphenylamino)-N-(ethylcarbamoyl)-6-[3H-spiro(isobenzofuran-1,4′-piperidine)-1′-carbonyl]pyrazolo[1,5-a]pyrimidine-3-sulfonamide], with > 100%; and `Cc1ccc(Cl)c(Nc2c(C(=O)N3CCC4(CC3)OCc3ccccc34)cnc3c(S(=O)(=O)NC(=O)C4CCC4)cnn23)c1` [a-57, N-{7-(2-Chloro-5-methylphenylamino)-6-[3H-spiro(isobenzofuran-1,4′-piperidine)-1′-carbonyl]pyrazolo[1,5-a]pyrimidin-3-ylsulfonyl}cyclobutanecarboxamide], with > 100%; and `CCC(=O)NS(=O)(=O)c1cnn2c(Nc3ccc(F)cc3Cl)c(C(=O)N3CCC4(CC3)OCc3ccccc34)cnc12` [a-50, N-{7-(2-Chloro-4-fluorophenylamino)-6-[3H-spiro(isobenzofuran-1,4′-piperidine)-1′-carbonyl]pyrazolo[1,5-a]pyrimidin-3-ylsulfonyl}propionamide], with > 100%.
